Measurements as given in US10117821B2, “Topical lightening composition and methods of use thereof” (Avon Products, Inc., priority 2013, dated 2018).
Marks after values point to notes of the source that are not given here.

Assays:
B16 mouse melanoma cells = test: Melanin synthesis in B16 melanoma cell assay, normalized to MTT cell viability; format: cell-based; details: 7 days, vs water vehicle control, 6 replicates
Method: The effects of 3,3′-thiodipropanoic acid and Kojic acid on melanin levels were determined by performing assays using B16 melanoma cells. These cells are known to constitutively produce melanin and are a commonly utilized and accepted model system for monitoring the inhibition of melanin synthesis.
The B16 mouse melanoma cells were seeded (ATCC, cat. #: CRL-6475) into 96-well tissue culture-treated plates (BD Falcon) and treated with test actives or controls in DMEM without phenol red (Mediatech; cat. #: 17-205-CV). The cells were examined for their ability to modulate pigment formation. […] Tests were performed in 6 replicates each. Following the treatment period, the level of pigment produced or melanin synthesized was quantified by reading the absorbance at 540 nm using a standard microplate reader (Tecan Group Ltd.).
After quantifying the amount of melanin, cell viability was determined using the MTT conversion method. […] After quantifying the amount of melanin pigment produced, the cells were exposed to MTT dye solution (1 mg/ml) for two to three hours. […] MTT dye uptake and conversion by viable cells were determined by measuring the extracted formazan at 570 nm using a microplate reader. Total pigmentation was calculated, normalized to cell viability values and expressed as the average percent change in melanin level relative to control of sextuplicates performed.

[1] = test system: MELANODERM™ (MEL-300-B) human skin model; test: Melanin levels in MELANODERM 3D human skin model; format: cell-based; details: vs water vehicle control
Method: The effect of 3,3′-thiodipropanoic acid or Thiodipropionic acid (TDPA) and Nicotinamide on melanin levels was investigated using a MELANODERM™ (MEL-300-B, MatTek Corp., Ashland, Mass.) human skin model. MELANODERM™ is a viable reconstituted three-dimensional human skin equivalent containing melanocytes derived from African-American donors. Tissues were maintained in culture medium EPI-100-NMM-113 at 37° C. as recommended by the manufacturer.
TDPA was dissolved in water to a final concentration of 1.0% (w/v). Nicotinamide was dissolved in the culture media to a final concentration of 0.1% (w/v). 25 μl of the TDPA solution was applied topically to the MELANODERM™ tissue while 0.1% Nicotinamide containing culture medium was added on days 1, 2, 4, 7, 9, and 11. Control tissues were treated with water vehicle only. The tissue was treated with both active lightening agents at “saturated concentration,” which is the highest concentration of treatment that is not toxic to the system.
On Day 14, tissues were collected and homogenized in a buffer containing 1% SDS, 50 mM EDTA, and 10 mM Tris, pH 6.8. To each homogenate, protease K (5 mg/ml) was added and incubated overnight at 45° C. Additional protease K was added and incubated for 4 hours at 45° C., followed by the addition of 0.5M sodium carbonate and 30% H2O2 and incubation at 80° C. for 30 minutes. The samples were cooled down to room temperature, and extracted with chloroform/methanol (2:1). After centrifugation at 10,000 g for 10 minutes, absorbance of the top phase was measured at 450 nm. Percent change in melanin levels in treated tissue was calculated relative to control.
The effect of TDPA and Soybean Trypsin Inhibitor (STI) on melanin levels was investigated using the MELANODERM™ human skin model according to the methods described in Example 1.

With `O=C(O)CCSCCC(=O)O` [TDPA, 3,3′-thiodipropionic acid] as the molecule, how does the “% CHANGE IN MELANIN” value (B16 mouse melanoma cells; 0.1% final concentration) read?
The value was −27.4%*.

What about the “% CHANGE IN MELANIN” value ([1]; Example 1, 1% (w/v) in water, 25 μl topical, Day 14, average of three tissues) of the same molecule?
Its value is −10%*.

What about the “% CHANGE IN MELANIN” value ([1]; Example 3, 1%, methods of Example 1) of the same molecule?
The value was −9.1%.

`NC(=O)c1cccnc1` [Nicotinamide, nicotinamide (3-pyridinecarboxamide), reference compound] was tested. Which “% CHANGE IN MELANIN” value ([1]; Example 1, 0.1% (w/v) in culture medium, Day 14, average of three tissues) did it give?
The value was −16%*.

`O=c1cc(CO)occ1O` [Kojic Acid, Kojic acid (5-hydroxy-4-pyran-4-one-2-methyl), reference compound] was tested. Which “% CHANGE IN MELANIN” value (B16 mouse melanoma cells; 0.01% final concentration) did it give?
The value was −47.6%*.

B1: STI: Soybean Trypsin Inhibitor (STI), a known melanosome transfer inhibitor (protein, UniProt P01070 25-205, looked up)
Trypsin inhibitor A: DFVLDNEGNPLENGGTYYILSDITAFGGIRAAPTGNERCPLTVVQSRNELDKGIGTIISSPYRIRFIAEGHPLSLKFDSFAVIMLCVGIPTEWSVVEDLPEGPAVKIGENKDAMDGWFRLERVSDDEFNNYKLVFCPQQAEDDKCGDIGISIDHDDGTRRLVVSKNKPLVVQFQKLDKESL
With B1 as the molecule, how does the “% CHANGE IN MELANIN” value ([1]; Example 3, 0.1%, methods of Example 1) read?
Its value is −8.9%.
